Measurements taken from US10464920B2, “Vicinal primary diamines associated with metal and/or free radical chelation motifs, and active against carbonyl and oxidative stress, and use thereof” (UNIVERSITE AMIENS PICARDIE JULES VERNE, priority 2015, dated 2019).

What was measured:
[1] = test system: low-density lipoproteins (LDLs); assay: Antiradical properties: inhibition of lipid peroxidation in AAPH-induced oxidation of LDLs; type: biochemical; conditions: for anti-radical properties compared with Dap-Pip and vitamin E: concentrations from 1 to 10 μM; for antioxidant effect: concentrations ranging from 1 to 100; for antioxidant properties: low concentrations of about 1 μM
Procedure: The antiradical properties of the various compounds are determined by inhibition of the lipid peroxidation in the in vitro model of the oxidation of the low-density lipoproteins (LDLs) (Free Radic. Biol. Med., 1992, 13, 341-390). The lipid peroxidation is initiated by the attack by free radicals of a double bond of a polyunsaturated fatty acid present in the LDLs. […] Once initiated, the oxidation of the LDLs is a chain reaction of lipid peroxidation generated by the free radicals. The oxidation in vitro of the LDLs is induced at 37° C. by the adding of the water-soluble compound 2,2′-Azobis(2-methylpropionamidine)dihydrochloride (AAPH), which generates free radicals during the spontaneous thermal breakdown thereof
Briefly, the oxidation, carried out in a 96-well plate, is induced at 37° C. by adding 20 μL of a solution of AAPH at 2 mM in D-PBS at 160 μL of LDL (100 μg/mL) in the presence or absence of 20 μL of the various solutions of the compounds to be tested dissolved in D-PBS (0.1 to 100 μM in final concentrations). The LDLs alone without adding AAPH are used as a negative control. Each oxidation is carried out in double. During the oxidation, the formation of the conjugated dienes is followed by the measurement of the optical density at 234 nm every 10 minutes for 8 h at 37° C. using a temperature-controlled TECAN spectrophotometer. The vitamin E (α-tocopherol) which is a powerful antioxidant recognised in this in vitro model is used as a reference molecule (J. Nutr. Biochem., 2012, 23, 845-51).

[2] = ORACFL test (Oxygen Radical Absorbance Capacity) using fluorescein/AAPH; type: physicochemical; conditions: compounds at 10 μM; for ORACFL: mean ± SEM of three independent experiments in triplicate
Procedure: The antioxidant properties of the compounds according to the invention were evaluated using a ORACFL test using fluorescein (J. Agric. Food Chem., 2004 52, 48-54; J. Agric. Food Chem., 2005, 53, 4290-4302). As such, peroxide radicals, generated in the presence of AAPH (2,2′-azobis(2-methylpropionamidine)dihydrochloride) at 37° C., react with this fluorescent sensor in order to give a non-fluorescent product. The protective effect of the test compounds can then be determined by following the decay curve of the fluorescence of the fluorescein over time and be measuring the area under the curve (AUC) of the sample in relation to that of a control corresponding to an absence of antioxidant.
The trolox (6-hydroxy-2,5,7,8-tetramethylchroman-2-carboxylic acid), a water-soluble analogue of vitamin E, is used as a standard for calculating the antioxidant capacity (ORACFL) of the compounds tested at 10 μM, expressed in […] of tested compound. This value is as such obtained using the straight-line calibration equation giving the area under the curve according to the various concentrations of trolox (Bioorg. Med. Chem., 2015, 23, 1135-1148) (FIG. 11).
A solution of fluorescein (FL) (12 nM; 150 μL) is introduced into a black 96-well plate (Dutscher, Brumath, France). The compounds to be tested (1-20 μM; 25 μL) or trolox (1-50 μM; 25 μL) dissolved in D-PBS are added into each well. After equilibration of the plate during an incubation at 37° C. for a minimum of 30 min, the radical reactions are initiated using a solution of AAPH prepared extemporaneously (30 mM; 25 μL). The fluorescence (λEx: 485 nm; λEm: 520 nm) is measured every 90 seconds for 60 cycles using a temperature-controlled Tecan Infinite® 200 PRO microplate reader (measurements taken in triplicates during three independent experiments).

[3] = test system: murine endothelial brain cells (bEnd.3); assay: Cytotoxicity, cellular viability (CCK-8/WST-8) on bEnd.3; type: cell-based; conditions: mouse
Procedure: (§1) The cellular viability is evaluated by a colorimetric method based on the detection of the conversion of a salt of the tetrazolium (WST-8) by the metabolically active cells (CCK-8 kit, Sigma, Lyons, France) (Molecules, 2014, 19(8), 12048-12064; J. Pharmacol. Toxicol. Methods., 2007, 56(1), 58-62). Living cells have mitochondrial dehydrogenases that reduce the WST-8 (2-(2-methoxy-4-nitrophenyl)-3-(4-nitrophenyl)-5-(2,4-disulfophenyl)-2H-tetrazolium), monosodium salt) to formazan of an orange colour, which dissolves directly in the culture medium in the presence of 1-Methoxy PMS (1-methoxy-5-methylphenazinium methyl sulphate). After an incubation for 1 h at 37° C., the absorbance of the formazan is measured at 450 nm. The absorbance is directly proportional to the number of living cells.
(§2) Briefly, the cells are inoculated in 96-well plates at a rate of 5.10^3 cells per well in 100 μL of the suitable medium until subconfluence. The cells are then washed with D-PBS, then treated with various concentrations (10 μM, 100 μM) of the products to be tested in triplicates for 24 and 48 h. A positive control is carried out with 10% of DMSO. The CCK-8 (10 μL) solution is then added to each well for an incubation for 1 h at 37° C. The measurement of the absorbance is taken at 450 nm using a Perkin Elmer 2103 Envision® microplate reader.
(§3) The viability of the cells is expressed as a % of the control (untreated cells) by the mean±standard deviation of triplicates forming a representative experiment or of three independent experiments conducted in triplicate.

[4] = test system: rat pheochromocytoma cells, treated as neuronal cells (PC12); assay: Cytotoxicity, cellular viability (CCK-8/WST-8) on PC12; type: cell-based; conditions: rat
Procedure: as §1, §2, §3

[5] = lower concentrations, 0.1 to 10 μM

| SMILES | antioxidant / pro-oxidant behaviour ([1]; concentrations ranging from 25 to 100) | antioxidant / pro-oxidant behaviour [1, 5] | ORACFL [2] | viability of the cells as a percentage of the untreated cells ([3]; 24 h, 10 μM) | viability of the cells as a percentage of the untreated cells ([3]; 24 h, 100 μM) | viability of the cells as a percentage of the untreated cells ([3]; 48 h, 10 μM) | viability of the cells as a percentage of the untreated cells ([3]; 48 h, 100 μM) | viability of the cells as a percentage of the untreated cells ([4]; 24 h, 10 μM) | viability of the cells as a percentage of the untreated cells ([4]; 24 h, 100 μM) | viability of the cells as a percentage of the untreated cells ([4]; 48 h, 10 μM) | viability of the cells as a percentage of the untreated cells ([4]; 48 h, 100 μM) | anti-radical properties compared with Dap-Pip and vitamin E [1] | antioxidant / pro-oxidant behaviour ([1]; concentrations ranging from 50 to 100) | antioxidant capacity (ORACFL), in words [2] | antioxidant effect [1] | antioxidant properties [1] |
| --- | --- | --- | --- | --- | --- | --- | --- | --- | --- | --- | --- | --- | --- | --- | --- | --- |
| COc1cc(/C=C/C(=O)N2CCN(C(=O)CCC(N)CN)CC2)ccc1O (stereo not shown) [Compound 29a, (E)-4,5-diamino-1-(4-(3-(4-hydroxy-3-methoxyphenyl)acryloyl)piperazin-1-yl)pentan-1-one] | antioxidants | pro-oxidants | 2.05 ± 0.23 μmol TE/μmol | 98% | 87% | 90% | 83% | 100% | 120% | 94% | 87% |  |  |  |  |  |
| NCC(N)CCCCNC(=O)c1cc(O)c(O)c(O)c1 (stereo not shown) [Compound 30b, N-(5,6-diaminohexyl)-3,4,5-trihydroxybenzamide] |  | highly antioxidant | 2.59 ± 0.35 μmol TE/μmol | 93% | 99% | 92% | 87% | 110% | 82% | 95% | 67% | higher than those of the 2nd generation Dap-Pip derivative, and even those of vitamin E | highly pro-oxidant | most active |  |  |
| NCC(N)CCCNC(=O)CCn1cccc(O)c1=O (stereo not shown) [Compound 37a, N-(4,5-diaminopentyl)-3-(3-hydroxy-2-oxopyridin-1(2H)-yl)propanamide] |  |  | 0.58 ± 0.02 μmol TE/μmol | 97% | 103% | 99% | 93% | 93% | 112% | 96% | 99% | higher than those of the 2nd generation Dap-Pip derivative, and even those of vitamin E |  |  | increasing antioxidant effect | best antioxidant properties |
| NCC(N)CCCCNC(=O)CCn1cccc(O)c1=O (stereo not shown) [Compound 37b, N-(5,6-diaminohexyl)-3-(3-hydroxy-2-oxopyridin-1(2H)-yl)propanamide] |  |  | 0.99 ± 0.09 μmol TE/μmol | 126% | 115% | 101% | 100% | 138% | 124% | 115% | 107% |  |  |  |  |  |
| NCC(N)CCC(=O)NCCCn1cccc(O)c1=O (stereo not shown) [Compound 37c, 4,5-diamino-N-(3-(3-hydroxy-2-oxopyridin-1(2H)-yl)propyl)pentanamide] |  |  | 1.03 ± 0.03 μmol TE/μmol | 99% | 85% | 86% | 84% | 110% | 102% | 91% | 94% | higher than those of the 2nd generation Dap-Pip derivative, and even those of vitamin E |  | most active | increasing antioxidant effect | best antioxidant properties |
